The values below come from ChEMBL document CHEMBL1641545 (Bioorg Med Chem Lett, 2011).

Experiment [1] deals with T1, Delta-type opioid receptor (Homo sapiens, UniProt P41143). In words: Displacement of [3H]DADLE from delta opioid receptor expressed in HEK293 cells relative to DADLE. Details: concentration or dose not given beside the values. The format is cell-based.
In experiment [2] the target is T2, Kappa-type opioid receptor (Homo sapiens, UniProt P41145). In words: Displacement of [3H]diprenorphine from kappa opioid receptor expressed in HEK293 cells relative to salvinorin A. Set-up: concentration or dose not given beside the values. Format: cell-based.
T2 sequence (P41145 whole entry): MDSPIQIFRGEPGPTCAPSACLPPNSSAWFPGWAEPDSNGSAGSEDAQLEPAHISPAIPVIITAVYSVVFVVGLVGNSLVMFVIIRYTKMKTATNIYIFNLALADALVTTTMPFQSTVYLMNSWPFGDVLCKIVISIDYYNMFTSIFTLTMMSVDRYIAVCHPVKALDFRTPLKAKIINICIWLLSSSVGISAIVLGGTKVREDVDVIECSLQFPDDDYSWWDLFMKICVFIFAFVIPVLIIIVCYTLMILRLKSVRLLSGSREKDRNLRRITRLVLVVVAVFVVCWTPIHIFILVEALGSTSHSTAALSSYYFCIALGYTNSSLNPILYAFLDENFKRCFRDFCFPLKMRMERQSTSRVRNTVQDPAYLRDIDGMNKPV
Experiment [3] concerns the target T2, Kappa-type opioid receptor. In words: Displacement of [3H]U69593 from kappa opioid receptor expressed in HEK293 cells relative to salvinorin A. Details: concentration or dose not given beside the values. Format: cell-based.
Experiment [4] concerns the target T3, Mu-type opioid receptor (Homo sapiens, UniProt P35372). The experiment can be described thus: Displacement of [3H]DAMGO from mu opioid receptor expressed in HEK293 cells relative to DAMGO. Format: cell-based. Set-up: concentration or dose not given beside the values.
Experiment [5] can be described thus: Selectivity ratio of Ki for delta opioid receptor to Ki for kappa opioid receptor.
Experiment [6] can be described thus: Selectivity ratio of Ki for mu opioid receptor to Ki for kappa opioid receptor.
The target of experiment [7] is T2, Kappa-type opioid receptor. In words: Displacement of [3H]U69593 from kappa opioid receptor expressed in HEK293 cells. Format: cell-based.
The target in experiment [8] is T1, Delta-type opioid receptor. The experiment can be described thus: Displacement of [3H]DADLE from delta opioid receptor expressed in HEK293 cells. Format: cell-based.
The target in experiment [9] is T3, Mu-type opioid receptor. The experiment can be described thus: Displacement of [3H]DAMGO from mu opioid receptor expressed in HEK293 cells. The format is cell-based.
For experiment [10], the target named is T2, Kappa-type opioid receptor. The experiment can be described thus: Agonist activity at kappa opioid receptor expressed in HEK293 cells by [35S]GTPgammaS binding assay relative to salvinorin A. The format is functional, cell-based.
In experiment [11] the target is T2, Kappa-type opioid receptor. The experiment can be described thus: Agonist activity at kappa opioid receptor expressed in HEK293 cells by [35S]GTPgammaS binding assay. The format is functional, cell-based.

T3 sequence (P35372 whole entry): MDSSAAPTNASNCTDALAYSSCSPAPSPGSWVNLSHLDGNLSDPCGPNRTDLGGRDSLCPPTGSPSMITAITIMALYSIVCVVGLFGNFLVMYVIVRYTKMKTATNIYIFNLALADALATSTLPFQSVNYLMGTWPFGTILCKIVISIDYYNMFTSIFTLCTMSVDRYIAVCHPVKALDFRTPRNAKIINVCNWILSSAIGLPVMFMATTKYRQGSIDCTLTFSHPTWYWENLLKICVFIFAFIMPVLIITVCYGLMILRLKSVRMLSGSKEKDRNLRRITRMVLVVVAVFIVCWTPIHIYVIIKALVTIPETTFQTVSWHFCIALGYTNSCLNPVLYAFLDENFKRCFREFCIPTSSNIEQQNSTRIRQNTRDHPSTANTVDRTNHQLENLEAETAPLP
T1 sequence (P41143 whole entry): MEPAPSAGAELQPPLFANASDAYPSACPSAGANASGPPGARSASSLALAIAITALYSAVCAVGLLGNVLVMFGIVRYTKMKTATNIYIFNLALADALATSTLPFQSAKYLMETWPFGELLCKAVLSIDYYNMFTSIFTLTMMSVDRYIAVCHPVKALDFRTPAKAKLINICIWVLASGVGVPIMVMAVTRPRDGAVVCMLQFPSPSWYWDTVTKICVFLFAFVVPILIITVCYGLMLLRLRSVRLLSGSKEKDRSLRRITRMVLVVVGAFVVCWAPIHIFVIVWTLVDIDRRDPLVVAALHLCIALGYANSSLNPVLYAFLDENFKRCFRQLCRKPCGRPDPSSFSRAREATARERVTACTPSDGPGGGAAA

As to `COC(=O)[C@@H]1C[C@H](OC(=O)[C@@H](N)[C@H](C)OC(C)(C)C)C(=O)[C@H]2[C@@]1(C)CC[C@H]1C(=O)O[C@H](c3ccoc3)C[C@]21C`, the Activity is 11% in [1], 0% in experiment [2], 6% in experiment [3] and 2% at Mu-type opioid receptor [4].

Take `COC(=O)[C@@H]1C[C@H](OC(=O)CNC(=O)OCC2c3ccccc3-c3ccccc32)C(=O)[C@H]2[C@@]1(C)CC[C@H]1C(=O)O[C@H](c3ccoc3)C[C@]21C`: the Activity in [1] came out at 16%; in [2] it was 10%; in experiment [3] it was 4%; on Mu-type opioid receptor [4], 20%.

For `COC(=O)[C@@H]1C[C@H](OC(=O)[C@H](C)N)C(=O)[C@H]2[C@@]1(C)CC[C@H]1C(=O)O[C@H](c3ccoc3)C[C@]21C`, the Activity was 18% in experiment [1], 0% in experiment [2], 82% in experiment [3] and -1.6% at Mu-type opioid receptor [4]. For the same compound, the Ratio Ki in [5] and in experiment [6] was above 2.64 in each case. For the same compound, the Ki in experiment [7] was 3.78 µM; in experiment [8], above 10 µM; on Mu-type opioid receptor [9], above 10 µM.

In the case of `COC(=O)[C@@H]1C[C@H](OC(=O)[C@H](C)NC(=O)OCC2c3ccccc3-c3ccccc32)C(=O)[C@H]2[C@@]1(C)CC[C@H]1C(=O)O[C@H](c3ccoc3)C[C@]21C`, the Activity was 15% in [1], 0% in experiment [2], 21% in [3] and 24% at Mu-type opioid receptor [4].

Regarding `COC(=O)[C@@H]1C[C@H](OC(=O)[C@H](Cc2ccccc2)NC(=O)OCC2c3ccccc3-c3ccccc32)C(=O)[C@H]2[C@@]1(C)CC[C@H]1C(=O)O[C@H](c3ccoc3)C[C@]21C`, the Activity in experiment [1] stood at 3%; in [2] it was 34%; in experiment [3], 0%; on Mu-type opioid receptor [4] it was 0.5%.

For the compound `COC(=O)[C@@H]1C[C@H](OC(=O)[C@@H](N)C(C)C)C(=O)[C@H]2[C@@]1(C)CC[C@H]1C(=O)O[C@H](c3ccoc3)C[C@]21C`, the Activity in experiment [1] came to 48%; in [2], 91%; in experiment [3], 103%; at Mu-type opioid receptor [4], 5%. Further, the Ratio Ki in [5] and in experiment [6] was above 238 throughout. The maximum response (Emax) in [10] is 118%; in [11], 828%. Besides, the Ki in experiment [7] was 0.042 µM; in experiment [8] it was above 10 µM; at Mu-type opioid receptor [9], above 10 µM. This compound returned a half-maximal effective concentration (EC50) in [11] of 0.213 µM.

In the case of `COC(=O)[C@@H]1C[C@H](OC(=O)CCCNC(=O)OCC2c3ccccc3-c3ccccc32)C(=O)[C@H]2[C@@]1(C)CC[C@H]1C(=O)O[C@H](c3ccoc3)C[C@]21C`, the Activity in [1] stood at 24%; in [2], 0%; in experiment [3], 10%; on Mu-type opioid receptor [4] it was 27%.

In the case of `Oc1ccc2c3c1O[C@H]1c4[nH]c5ccccc5c4C[C@@]4(O)[C@@H](C2)N(CC2CC2)CC[C@]314`, the Activity in experiment [1] came out at 100%.

Take `COC(=O)[C@@H]1C[C@H](OC(=O)[C@@H](NC(=O)OCC2c3ccccc3-c3ccccc32)C(C)C)C(=O)[C@H]2[C@@]1(C)CC[C@H]1C(=O)O[C@H](c3ccoc3)C[C@]21C`: the Activity in experiment [1] was found to be 22%; in [2], 0%; in experiment [3], 39%; at Mu-type opioid receptor [4], 15%.

Take `COC(=O)[C@@H]1C[C@H](OC(=O)[C@@H](NC(=O)OCC2c3ccccc3-c3ccccc32)[C@H](C)OC(C)(C)C)C(=O)[C@H]2[C@@]1(C)CC[C@H]1C(=O)O[C@H](c3ccoc3)C[C@]21C`: the Activity in experiment [1] was 8%; in [2], 12%; in experiment [3], 28%; at Mu-type opioid receptor [4], 18%.

Consider `COC(=O)[C@@H]1C[C@H](OC(=O)CCCN)C(=O)[C@H]2[C@@]1(C)CC[C@H]1C(=O)O[C@H](c3ccoc3)C[C@]21C`, for which the Activity in [1] stood at 28%; in [2], 0%; in experiment [3], 48%; at Mu-type opioid receptor [4], 1%.

As for `COC(=O)[C@@H]1C[C@H](OC(=O)[C@@H](N)Cc2ccccc2)C(=O)[C@H]2[C@@]1(C)CC[C@H]1C(=O)O[C@H](c3ccoc3)C[C@]21C`, the Activity in experiment [1] was 13%; in experiment [2], 0%; in [3] it was 19%; on Mu-type opioid receptor [4], -6%.

Take `COC(=O)[C@@H]1C[C@H](OC(=O)CN)C(=O)[C@H]2[C@@]1(C)CC[C@H]1C(=O)O[C@H](c3ccoc3)C[C@]21C`: the Activity in [1] was 17%; in experiment [2], 0%; in [3], 41%; on Mu-type opioid receptor [4] it was -5%.
